Results on 34 compounds are retold here after patent publication US8450308B2 (Vitae Pharmaceuticals, Inc., priority 2008, dated 2013).

The target of assay [1] is T1, truncated human beta-secretase (residues 1-458, His6-tagged at the C-terminus) (Homo sapiens, UniProt P56817).
T1 construct: truncated human beta-secretase (residues 1-458, His6-tagged at the C-terminus); His6 (C); made in house; host or cells: insect cells D. melanogaster S2 (baculovirus expression system (so in the source))
Kind of assay: BACE fluorescence quench assay. In kind it is biochemical. Conditions: in vitro enzyme activity, BACE fluorescence assay, pH 4.5; read-out: IC50.

The nature of assay [2]: BACE cell assay: soluble Amyloid Beta 1-40 (Aβ 1-40) in culture media of H4-APPsw cells. In kind it is cell-based. The method, then:
H4 neuroglioma cell line that stably expresses Amyloid Precursor Protein (APP) containing the KM-NL Swedish mutation (H4-APPsw) was generated. For the assay, cells are treated overnight in the presence of inhibitor and the culture media are subjected to ELISA analysis of soluble Amyloid Beta 1-40 (Aβ 1-40).
H4 neuroglioma cell line was cultured in DMEM with 10% FBS and 1% penicillin/streptomycin (Culture Medium) at 37° C., 5% CO2. […] 24 hrs after transfection, the cells were replaced into three new plates (150 mm) in fresh Culture Medium with 250 ug/ml Zeocin. […] The levels of APPsw expression were analyzed by immunoblotting and the production of Aβ 1-40 was detected by ELISA of culture supernatants. The selected clones are maintained in Culture Medium with 250 μg/ml Zeocin and routinely split in 3-4 days to maintain 20-80% confluence.
Split cells. Split H4-APPsw cells in Culture Medium and culture overnight such that cells will be ˜80% confluent next morning.
Create Compound Dilution Plate. After determining the desired final concentration of compound to be tested, create a 500× dilution plate. Add DMSO, but not inhibitor, to each well of Column 1. […] Add compounds of interest at 500× desired final concentration to wells A3-A10. Add DMSO, but not inhibitor, to each well of Columns 11 and 12. Dilute contents of Row A 1:3 in Row B. then continue through Rows C—H.
Create Media Plate. To create a 2× solution of compound in media, add 996 μL Culture Medium to each well of a 96-well 2 ml deep well plate (Media Plate) in biosafety hood. Add 4 μL 5 mM control compound to Media Plate wells A1-D1 for determination of full inhibition.
Add media to Cell Plate. With a multichannel pipettor, mix each well of Media Plate several times to insure homogeneity. Add 100 μL of mixture to Black polymer bottom P-D-L plates. Next, place Medium Plate and Cell Plate in the incubator.
Add cells to Cell Plate. Trypsinize and count H4-APPsw cells. Dilute cells 6×10^5 cells/ml in Culture Medium and remove Cell Plate from incubator. Vortex cells to homogeneity, then using a multichannel repeating pipettor, add 100 μL cell suspension to Cell Plate, adding cells from Row H to Row A. Place Cell Plate in incubator.
Change media in Cell Plate. After 5 h, check Cell Plate by microscope to insure cells are attached. In culture hood, remove media from Cell Plate using multichannel repeating pipettor. Add 100 μl Culture Medium to each well. Remove Media Plate from incubator and mix with pipettor as previous. Add 100 μl from each well of Media Plate to corresponding well in Cell Plate. Place Cell Plate in incubator overnight.
Perform ELISA to determine levels of secreted Aβ 1-40. After 16 h incubation, spin Cell Plate for 8 min at 1200 rpm. The primary reading of Aβ 1-40 levels is done using PerkinElmer AlphaLISA technology. Follow the manufacturer's protocol for performing AlphaLISA in a white ½ area Optiwell plate using Row 12 for peptide standard (1:2 dilutions, starting at 15 ng/ml). Data are acquired using PerkinElmer Fusion-Alpha FP-HT, Alpha protocol (Count Time 0.6 s, Count Time Ratio 30%:70%).
Export data from Fusion using Columnar Report format into a separate file for each plate. Upload data into Activity Base using RIA-DOSE-RESPONSE protocol (Version 1). Data from at least eight doses were fitted to a four parameter logistical model using XLfit software to determine potency.

Where [3] appears, read: in vitro cell activity, H4-APPsw cells, secreted Aβ 1-40, overnight treatment, read-out: IC50.

Each structure is given as a SMILES string. Read-outs that look alike come from different tables or passages of the source.

T1 sequence (P56817 22-458): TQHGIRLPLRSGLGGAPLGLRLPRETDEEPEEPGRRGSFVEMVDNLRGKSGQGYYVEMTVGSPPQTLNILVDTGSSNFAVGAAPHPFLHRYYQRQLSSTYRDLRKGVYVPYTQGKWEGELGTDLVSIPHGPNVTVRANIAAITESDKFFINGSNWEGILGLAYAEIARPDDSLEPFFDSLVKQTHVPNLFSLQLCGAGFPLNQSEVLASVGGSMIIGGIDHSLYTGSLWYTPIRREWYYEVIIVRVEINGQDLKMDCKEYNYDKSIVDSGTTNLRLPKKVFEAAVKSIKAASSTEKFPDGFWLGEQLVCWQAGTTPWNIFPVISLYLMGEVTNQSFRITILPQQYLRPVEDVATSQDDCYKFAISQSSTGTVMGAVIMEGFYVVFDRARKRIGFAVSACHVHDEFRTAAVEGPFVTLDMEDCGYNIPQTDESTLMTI

As to `CN1OC2(CC3(CCCc4ccccc4C3)Oc3ccc(C#CC4CCCC4)cc32)N=C1N` (centres unmarked) [Compound 317], the IC50 (commonly the concentration at which inhibition is half-maximal) was in the range of 100 to 500 nM in assay [1] and 1000 to 5000 nM in assay [2] (setting [3]).

As for `CN1C(=O)C2(CC3(CCCOC3)Oc3ccc(-c4cc(F)cc(Cl)c4)cc32)N=C1N` (centres unmarked) [Compound 286], the concentration for half-maximal inhibition (IC50) in assay [1] and in assay [2] (setting [3]) was 100 to 500 nM throughout. As to `CN1O[C@]2(C[C@@H]([C@H]3CCCOC3)Oc3ccc(-c4cc(F)cc(F)c4)cc32)N=C1N` [Compound 348], the concentration for half-maximal inhibition (IC50) lay in the range of 500 to 1000 nM in assay [1] and 5000 to 10000 nM in assay [2] (setting [3]). Taken in the same sequence, the figures for `CN1O[C@]2(C[C@H]([C@H]3CCCOC3)Oc3ccc(-c4cc(F)cc(F)c4)cc32)N=C1N` (racemic) [Compound 316, (±)-(2S,4R)-6-(3,5-difluorophenyl)-2′-methyl-2-((R)-tetrahydro-2H-pyran-3-yl)-2′H-spiro[chroman-4,5′-[1,2,4]oxadiazol]-3′-amine] were 100 to 500 nM and 5000 to 10000 nM. Taken in the same sequence, the figures for `CN1O[C@]2(C[C@H]([C@H]3CCOC(C)(C)C3)Oc3ccc(-c4cccc(C#N)c4)cc32)N=C1N` [Compound 293] were 100 to 500 nM and 1000 to 5000 nM. Taken in the same sequence, the figures for `CN1C(=O)[C@@]2(C[C@]3(CCCOC3)Oc3ccc(-c4cc(F)cc(F)c4F)cc32)N=C1N` [Compound 280] were 100 to 500 nM and 100 to 500 nM. For the compound `CN1OC2(CC3(CC4CCC3OC4)Oc3ccc(-c4cccc(C#N)c4)cc32)N=C1N` (single isomer, unassigned) [Compound 379], the IC50 in assay [1] and in assay [2] (setting [3]) was 1000 to 5000 nM throughout. Consider `CN1OC2(CC3(CCCc4ccccc4C3)Oc3ccc(Br)cc32)N=C1N` (centres unmarked) [Compound 349], for which the IC50 lay within 500 to 1000 nM in assay [1] and 1000 to 5000 nM in assay [2] (setting [3]). Taken in the same sequence, the figures for `CN1O[C@]2(C[C@@H]([C@@H]3CCCOC3)Oc3ccc(-c4cc(F)cc(F)c4)cc32)N=C1N` (racemic) [Compound 323, (±)-(2S,4S)-6-(3,5-difluorophenyl)-2′-methyl-2-((R)-tetrahydro-2H-pyran-3-yl)-2′H-spiro[chroman-4,5′-[1,2,4]oxadiazol]-3′-amine] were 100 to 500 nM and 1000 to 5000 nM. Taken in the same sequence, the figures for `COc1cc(OC)cc(-c2ccc3c(c2)[C@]2(C[C@]4(CCCOC4)O3)N=C(N)N(C)C2=O)c1` [Compound 283] were 100 to 500 nM and 100 to 500 nM. Taken in the same sequence, the figures for `CN1OC2(CC(C3CCOC(C)(C)C3)Oc3ccc(-c4cccc(Br)c4)cc32)N=C1N` (centres unmarked) [Compound 294] were 100 to 500 nM and 1000 to 5000 nM. As to `CC1CC[C@]2(CO1)C[C@]1(N=C(N)N(C)O1)c1cc(-c3ccc(F)c(Cl)c3)ccc1O2` (some centres unmarked) [Compound 330], the half-maximal inhibitory concentration (IC50) in assay [1] is 100 to 500 nM; in assay [2] (setting [3]), 1000 to 5000 nM. Taken in the same sequence, the figures for `CN1OC2(C[C@H]([C@@H]3CCOC(C)(C)C3)Oc3ccc(-c4cccc(C#N)c4F)cc32)N=C1N` (some centres unmarked) [Compound 306] were 100 to 500 nM and 1000 to 5000 nM. Taken in the same sequence, the figures for `CN1O[C@@]2(C[C@@H](C3CCOc4ccccc43)Oc3ccc(-c4cccc(C#N)c4)cc32)N=C1N` (some centres unmarked) [Compound 279] were 100 to 500 nM and 1000 to 5000 nM.

For `Cc1ccc(F)cc1-c1ccc2c(c1)[C@]1(C[C@]3(CCCOC3)O2)N=C(N)N(C)C1=O` [Compound 287], the IC50 in assay [1] and in assay [2] (setting [3]) was 100 to 500 nM in each case. As to `Cc1cc2c(cc1-c1cccc(C#N)c1)C1(CC3(CCCOC3)O2)N=C(N)N(C)O1` (centres unmarked) [Compound 432, 3-(3″-amino-2″,7-dimethyl-2″H-spiro[spiro[chroman-2,1′-(3-oxacyclohexane)]-4,5′-[1,2,4]oxadiazole]-6-yl)benzonitrile], the half-inhibitory concentration (IC50) was in the range of 5000 to 10000 nM in assay [1] and 10000 to 50000 nM in assay [2] (setting [3]). Taken in the same sequence, the figures for `CN1OC2(CC3(CCCN(c4ccccc4)C3)Oc3ccc(-c4cccc(C#N)c4)cc32)N=C1N` (centres unmarked) [Compound 355] were 500 to 1000 nM and 5000 to 10000 nM. Taken in the same sequence, the figures for `CN1OC2(CC3(CCN(c4ncccn4)CC3)Oc3ccc(-c4cccc(C#N)c4)cc32)N=C1N` (centres unmarked) [Compound 353] were 500 to 1000 nM and 10000 to 50000 nM.

For `CN1OC2(CC3(CCCc4ccccc4C3)Oc3ccc(C#CC(C)(C)C)cc32)N=C1N` (centres unmarked) [Compound 308], the 50% inhibitory concentration (IC50) in assay [1] was 100 to 500 nM; in assay [2] (setting [3]), 1000 to 5000 nM. Taken in the same sequence, the figures for `CN1OC2(CC3(CCc4ccccc4C3)Oc3ccc(-c4cccc(C#N)c4)cc32)N=C1N` (centres unmarked) [Compound 324] were 100 to 500 nM and 5000 to 10000 nM.

Take `CN1OC2(CC3(CCCc4ccccc43)Oc3ccc(-c4cc(F)cc(F)c4)cc32)N=C1N` (centres unmarked) [Compound 402]: the figures for the IC50 in assay [1] and in assay [2] were 1000 to 5000 nM and 10000 to 50000 nM, respectively. Take `CN1OC2(C[C@H]([C@H]3CCOC(C)(C)C3)Oc3ccc(-c4cc(F)cc(Cl)c4)cc32)N=C1N` (some centres unmarked) [Compound 295]: the results for the IC50 in assay [1] and in assay [2] (setting [3]) were 100 to 500 nM and 1000 to 5000 nM, respectively. Taken in the same sequence, the figures for `CN1OC2(CC(C3CCOC(C)(C)C3)Oc3ccc(-c4cccc(C(F)(F)F)c4)cc32)N=C1N` (centres unmarked) [Compound 297] were 100 to 500 nM and 1000 to 5000 nM. Taken in the same sequence, the figures for `CN1C(=O)C2(CC3(CCCOC3)Oc3ccc(-c4cccc(C(F)(F)F)c4)cc32)N=C1N` (centres unmarked) [Compound 338] were 100 to 500 nM and 1000 to 5000 nM. As for `CN1OC2(C[C@@]3(CC4CCC3OC4)Oc3ccc(-c4cccc(C#N)c4)cc32)N=C1N` (single isomer, unassigned) [Compound 408], the IC50 in assay [1] fell in the range of 1000 to 5000 nM; in assay [2] (setting [3]), 5000 to 10000 nM. Taken in the same sequence, the figures for `CN1O[C@@]2(C[C@H](C3CCOc4ccccc43)Oc3ccc(-c4cccc(C#N)c4)cc32)N=C1N` (some centres unmarked) [Compound 331] were 100 to 500 nM and 5000 to 10000 nM. Taken in the same sequence, the figures for `CN1OC2(CC3(CCCc4ncccc43)Oc3ccc(-c4cccc(C#N)c4)cc32)N=C1N` (centres unmarked) [Compound 320] were 100 to 500 nM and 1000 to 5000 nM. As to `CN1C(=O)C2(C[C@@H](C3CCCc4ccccc43)Oc3ccc(-c4cccc(C#N)c4)cc32)N=C1N` (stereo in doubt) [Compound 282, 3-(2′-amino-1′-methyl-5′-oxo-2-(1,2,3,4-tetrahydronaphthalen-1-yl)-1′,5′-dihydrospiro[chroman-4,4′-imidazole]-6-yl)benzonitrile], the IC50 in assay [1] lay within 100 to 500 nM; in assay [2] (setting [3]) it was 1000 to 5000 nM. Consider `CN1O[C@@]2(C[C@@H]([C@H]3CCOC(C)(C)C3)Oc3ccc(-c4cccc(C#N)c4)cc32)N=C1N` [Compound 207], for which the 50% inhibitory concentration (IC50) in assay [2] (setting [3]) lay within 100 to 500 nM. Still for that read-out and setting: to `COc1cc(Cl)cc(-c2ccc3c(c2)C2(CC(C4CCCc5ccccc54)O3)N=C(N)N(C)O2)c1` (centres unmarked) [Compound 278] belongs 5000 to 10000 nM; to `C[C@H]1CC[C@]2(CO1)CC1(N=C(N)N(C)O1)c1cc(-c3cccc(C#N)c3)ccc1O2` (stereo partly drawn) [Compound 272, 3-(3″-amino-2″-methyl-4″,5″-dihydro-2″H-spiro(spiro(chroman-2,3′-[(2R,6R/2S,6S)-2,4,5,6-tetrahydro-6-methyl-pyran])-(4R/4S)-4,5″-[1,2,4]oxadiazole)-6-yl)benzonitrile], 500 to 1000 nM. Same read-out and setting: in the case of `CN1C(=O)C2(C[C@H](C3CCOC(C)(C)C3)Oc3ccc(-c4cc(F)cc(Cl)c4)cc32)N=C1N` (some centres unmarked) [Compound 190] it was 1 to 100 nM. Same read-out and setting: in the case of `CN1OC2(CC3(CCCc4ccccc4C3)Oc3ccc(-c4cc(F)cc(C(F)(F)F)c4)cc32)N=C1N` (centres unmarked) [Compound 242] it was 1000 to 5000 nM; in that of `CN1O[C@]2(C[C@H]([C@@H]3CCOC(C)(C)C3)Oc3ccc(-c4cccc(C#N)c4)cc32)N=C1N` [Compound 211], 100 to 500 nM.
